# Laboratory results from patent US20140038953A1, “COMPOSITIONS AND METHODS FOR CARDIOVASCULAR DISEASE” (THE GENERAL HOSPITAL CORPORATION, priority 2011, published 2014).
# Entries after “also recorded” stand apart in the source; their conditions may differ.
# Key:
# [1] = test system: phosphorylated SMADs 1/5/8; test: p-SMAD1/5/8 immunofluorescence in atherosclerotic lesions of LDLR−/− mice; type: in vivo
# Description: BMP signaling activity in the nascent lesions of LDLR^−/− mice was characterized. Phosphorylated BMP-responsive SMADs (p-SMAD1/5/8), effectors of the BMP signaling pathway that are retained in the nuclei of activated cells, were detected by immunofluorescence in endothelial cells, macrophages, and the media of atheromatous lesions (FIG. 1b), particularly in the lesser curvature of the aorta, beginning three weeks on HFD. Activation of BMP signaling persisted for at least 20 weeks and was abundant near calcific lesions (FIG. 3). To confirm that the activation of SMAD1/5/8 observed in the vessels of LDLR^−/− mice was attributable to BMP signaling, a BMP type I receptor inhibitor, compound 13, was administered (2.5 mg/kg ip daily for five days) to LDLR^−/− mice that had received HFD for 6 weeks.
# For immunofluorescence, frozen sections were post-fixed in cold methanol and incubated with polyclonal antibodies specific for p-SMAD1/5/8 (1:100, Cell Signaling, Danvers, Mass.) or MAC2 (1:100, Cedarlane, Burlington, ON) followed by FITC labeled Goat Anti-Rabbit IgG or Rhodamine Goat Anti-Rat IgG (both Jackson Immuno Research, West Grove, Pa.), respectively.
# LDLr−/− mice were started on a hypercholesterolemic diet at 8 weeks, and treated with either vehicle (saline) or a BMP inhibitor positive control compound (compound 13, 2.5 mg/kg/d intraperitoneally) for an additional 8 weeks. Aortae were harvested and fixed, and then stained with antibodies sensitive for the BMP effector molecule, phosphorylated-SMAD1/5/8, and counterstained with DAPI nuclear stain. Within 6-8 weeks of being subjected to a high fat diet, LDR−/− mice developed fatty lesions in the intima of the aortic root, based on traditional histochemical staining techniques (data not shown). […] Thus, the cellular components of lipid rich plaques, predominantly macrophage-derived foam cells, had evidence of intense activation of the BMP signaling pathway. […]
# [2] = test system: LDLR−/− mice; test: Atheroma burden / lesion formation in LDLR−/− mice (Oil Red O, histology); type: in vivo; details: for lipid accumulation / atheroma burden (Oil Red O): high fat diet 20 weeks, 2.5 mg/kg ip daily, vs vehicle, 2.5 mg/kg
# Description: Aortas were either immediately embedded and cryopreserved using optimal cutting-temperature medium (Sakura Tissue-Tek, Zoeterwoude, The Netherlands) or fixed in paraformaldehyde and embedded in parafin. The presence of calcification was determined by staining tissue sections with Alizarin red or Von Kossa. Lipid accumulation in tissue sections was visualized by staining with Oil Red O. Liver sections were prepared from paraformaldehyde-fixed tissue and stained with hematoxylin and eosin.
# To confirm that BMP signaling has a direct impact on atherogenesis, the aortae explanted from the BMP inhibitor positive control compound-treated and vehicle-treated LDLr−/− mice after 20 weeks were subjected to Oil Red 0 staining to mark lipid-rich plaques.
# LDLr−/− mice were started on a hypercholesterolemic diet at 8 weeks, and treated with either vehicle (saline) or a BMP inhibitor positive control compound (compound 13, 2.5 mg/kg/d intraperitoneally) for an additional 8 weeks. Aortae were harvested and fixed, and then stained with antibodies sensitive for the BMP effector molecule, phosphorylated-SMAD1/5/8, and counterstained with DAPI nuclear stain. Within 6-8 weeks of being subjected to a high fat diet, LDR−/− mice developed fatty lesions in the intima of the aortic root, based on traditional histochemical staining techniques (data not shown). […] Thus, the cellular components of lipid rich plaques, predominantly macrophage-derived foam cells, had evidence of intense activation of the BMP signaling pathway. In contrast, the lipid plaques found in the BMP inhibitor positive control compound-treated mice, which were diminished in size and extent as compared to those in vehicle-treated mice, had also diminished intensity of staining for the phosphorylated form of SMAD1/5/8 (data not shown). Thus, hypercholesterolemic mice had evidence of intense BMP signaling pathway activation in the cellular components of atheromatous lesions, and treatment of hypercholesterolemic mice with the BMP inhibitor positive control compound diminished the activation of the BMP signaling pathway in these lesions.
# LDLR−/− deficient mice were intiated on an atherogenic diet (Paigen) at 8 weeks of age, and administered either vehicle, a BMP inhibitor positive control compound (compound 13, 2.5 mg/kg IP daily) or ALK3-Fc (2 mg/kg IP every other day). Each treatment group consisted of a total of 10 mice. After 4 weeks of atherogenic diet and drug or vehicle treatment, the animals were sacrificed. The frontal plane sections of the aortic arch were dissected out and stained for macrophage marker (MAC2) and counterstained with DAPI.
# LDLR−/− deficient mice were initiated on an atherogenic diet (Paigen) at 8 weeks of age, and administered either vehicle, a BMP inhibitor positive control compound (compound 13, 2.5 mg/kg IP daily) or ALK3-Fc ([…] IP every other day). After 6 weeks of atherogenic diet and treatment, the animals were sacrificed. The frontal plane sections of the aortic arch were dissected out and stained for phosphorylated SMAD1/5/8 and counterstained with DAPI.
# [3] = test system: human aortic endothelial cells; test: Reactive oxygen species in human aortic endothelial cells; type: cell-based; details: HAECs, compound 13 100 nM, ALK3-Fc 500 ng/mL
# Description: Cells plated in a 96-well format were pre-treated with compound 13, ALK3-Fc, or vehicle for 30 min followed by treatment with oxidized LDL, BMP2, or vehicle for 20 hours after starvation for six hours. H2O2 production with chloromethyl 2′,7′-dichlorodihydrofluorescein diacetate (DCF, 2 μM) and NADPH oxidase activity with lucigenin were measured as previously described. (Ichinose, F., et al. Cardiomyocyte-specific overexpression of nitric oxide synthase 3 prevents myocardial dysfunction in murine models of septic shock. Circ Res 100, 130-139 (2007); Sorescu, G. P., et al. Bone morphogenic protein 4 produced in endothelial cells by oscillatory shear stress induces monocyte adhesion by stimulating reactive oxygen species production from a nox1-based NADPH oxidase. Circ Res 95, 773-779 (2004); and Abid, M. R., Spokes, K. C., Shih, S. C. & Aird, W. C. NADPH oxidase activity selectively modulates vascular endothelial growth factor signaling pathways. J Biol Chem 282, 35373-35385 (2007).)
# Hepatoma G2 (HepG2) cells and human aortic endothelial cells (HAECs) were purchased from the American type culture collection (Manassas, Va.). HepG2 cells were maintained in Eagle's Minimum Essential Medium (EMEM) supplemented with 10% fetal bovine serum, 100 units/ml of penicillin, 0.1 mg/ml of streptomycin and glutamine. HAECs were cultured in endothelial cell basal medium (EBM 2) supplemented with the EBM2 bullet kit (Lonza, Basel, Switzerland). For experiments, cells were seeded into 6 or 12-well plates (BD Falcon, Franklin Lakes, N.J.) at a concentration of 0.5×10^6 cells per 5 mL of media. HAECs were maintained in EBM 2 with 0.1% FBS without additional growth factors for all experiments. HepG2 cells were grown to 70% confluence before they were incubated in EMEM enriched with 0.1% FBS. ApoB-100 measurements were performed in supernatants from HepG2 that had been incubated in EMEM containing 0.5% bovine serum albumin using a commercially available Human ApoB-100 ELISA kit (Mabtech AB, Nacka Strand, Sweden). […]
# [4] = LDLr−/− mice, hypercholesterolemic diet and treatment 8 weeks, 2.5 mg/kg/d ip
structure (smiles),measurement,setting,value
"c1ccc2c(-c3cnn4cc(-c5ccc(N6CCNCC6)cc5)cnc34)ccnc2c1 [Compound 13, 4-[6-(4-piperazin-1-ylphenyl)pyrazolo[1,5-a]pyrimidin-3-yl]quinoline]",p-SMAD1/5/8 within atherosclerotic lesions,"[1]; LDLR−/− mice on high fat diet 6 weeks, treated five days, compound 13 2.5 mg/kg ip daily, ALK3-Fc 2 mg/kg ip every other day",suppressed phosphorylation of SMADs 1/5/8; also recorded: markedly diminished the detection of p-SMAD1/5/8
same,p-SMAD1/5/8 staining in aorta,"[1]; LDLR−/− mice treated during 6 weeks of high fat diet, compound 13 2.5 mg/kg ip daily, ALK3-Fc every other day, 2.5 mg/kg",decreased staining for phosphorylated SMAD1/5/8
same,phosphorylated-SMAD1/5/8 staining in atheroma,[1]; [4],greatly diminished
same,lesion formation in aortic arch,"[2]; LDLR−/− mice, atherogenic diet and treatment 4 weeks, compound 13 2.5 mg/kg IP daily, ALK3-Fc 2 mg/kg IP every other day",decreased lesion formation overall
same,lesion formation / atherogenesis,"[2]; LDLR−/− mice, atherogenic diet and treatment 6 weeks",decreased lesion formation overall
same,lipid accumulation / atheroma burden (Oil Red O),[2]; LDLR−/− mice,Atheroma burden was reduced; also recorded: marked reduction
same,lipid accumulation / atheroma burden (Oil Red O),"[2]; LDLR−/− mice, listed as BMP inhibitor positive control compound",consistently more severe in vehicle-treated
same,intimal atheroma formation,[2]; [4],reduced intimal atheroma formation
same,BMP2-induced generation of reactive oxygen species (DCF fluorescence),[3]; BMP2 20 ng/mL,compound 13- and ALK3-Fc-sensitive manner
same,oxLDL-induced generation of reactive oxygen species (DCF fluorescence),[3]; oxLDL 80 μg/mL,could inhibit oxLDL-induced ROS production
same,oxLDL-induced generation of reactive oxygen species (lucigenin fluorescence),[3],could be blocked
